The values below come from patent US5686449A, “1,5-benzodiazepines useful as gastrinor CCK-antagonists” (priority 1994, dated 1997).

Where two headings read alike, the source gives them in different places.

For one experiment, the target named is T1, CCK-B receptor (Cavia porcellus, UniProt H0VZC5).
T1 construct: CCK-B receptor (guinea pig cortex assay); from tissue; host or cells: guinea pig cortex
T1 sequence (H0VZC5 1-426): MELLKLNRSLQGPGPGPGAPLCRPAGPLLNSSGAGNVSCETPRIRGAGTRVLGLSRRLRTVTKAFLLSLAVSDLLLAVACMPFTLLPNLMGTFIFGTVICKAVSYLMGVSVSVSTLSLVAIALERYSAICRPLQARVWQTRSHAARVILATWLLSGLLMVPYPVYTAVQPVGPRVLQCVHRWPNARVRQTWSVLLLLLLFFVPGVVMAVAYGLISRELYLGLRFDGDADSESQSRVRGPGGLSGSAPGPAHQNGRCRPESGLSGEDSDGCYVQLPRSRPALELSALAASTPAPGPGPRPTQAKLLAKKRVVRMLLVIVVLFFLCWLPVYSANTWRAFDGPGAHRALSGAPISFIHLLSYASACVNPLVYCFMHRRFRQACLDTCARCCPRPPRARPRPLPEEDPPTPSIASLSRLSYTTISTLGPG
Briefly: CCK receptor binding, CCK-B (guinea pig cortex assay). The method, then: (§1) Exp & Ther. 261, 1056-1063, 1992.
(§2) The binding affinity of the compounds of the invention for the CCK-A receptor (Pancreas Assay) and CCK-B receptor (guinea pig cortex assay) was determined using the procedure of G Dal Forno et al J. Pharmacol. Exp & Ther. 261-1056-1063.

The next experiment concerns the target CCK-A receptor. In words: CCK receptor binding, CCK-A (Pancreas Assay). On the procedure: as §1, §2
The mark [1] stands for this setting: CCK-B receptor, guinea pig cortex assay, read-out: pKi CCK-B (converted).

Turning to `CN1C(=O)C(NC(=O)Nc2ccccc2)C(=O)N(CC23CC4CC(CC(C4)C2)C3)c2ccccc21` (single isomer, unassigned; (-)) [Example 8, (-)-N-[1-(Adamantylmethyl)-2,4-dioxo-5-methyl-2,3,4,5-tetrahydro-1H-1,5-benzodiazepin-3-yl]-N'-phenylurea], the Ki at CCK-B receptor (setting [1]) is 1 nM.

Regarding `O=C(Nc1ccccc1)NC1C(=O)N(CC23CC4CC(CC(C4)C2)C3)c2ccccc2N(C2CCCCC2)C1=O` (centres unmarked) [Example 3], the Ki on CCK-B receptor was 2.4 nM. Moreover, on CCK-A receptor, the “pKi CCK-A” value is listed as 6.25.

For the compound `O=C(Nc1ccccc1)NC1C(=O)N(CCO)c2ccccc2N(CC23CC4CC(CC(C4)C2)C3)C1=O` (single isomer, unassigned; (-)) [Example 11, (-)-N-[1-(Adamantylmethyl)-2,4-dioxo-5-(2-hydroxyethyl)-2,3,4,5-tetrahydro-1H-1,5-benzodiazepin-3-yl]-N'-phenylurea], the Ki on CCK-B receptor (setting [1]) was 0.251 nM.

`O=C(Nc1ccccc1)NC1C(=O)N(CCCO)c2ccccc2N(CC23CC4CC(CC(C4)C2)C3)C1=O` (centres unmarked) [Example 14, N-[1-(Adamantane-1-methyl)-2,4-dioxo-5-(3-hydroxypropyl)-2,3,4,5-tetrahydro-1H-1,5-benzodiazepin-3-yl]-N'-phenylurea]: on CCK-B receptor (setting [1]), the Ki was 0.389 nM. For the same compound, the “pKi CCK-A” value on CCK-A receptor is listed as 6.09.

`CC(C)CCN1C(=O)C(NC(=O)Nc2ccccc2)C(=O)N(CC23CC4CC(CC(C4)C2)C3)c2ccccc21` (centres unmarked) [Example 1, N-[1-(1-Adamantylmethyl)-2,4-dioxo-5-(3-methylbut-1-yl)-2,3,4,5-tetrahydro-1H-1,5-benzodiazepin-3-yl]-N'-phenylurea]: the Ki at CCK-B receptor (setting [1]) is 1.38 nM. For the same compound, on CCK-A receptor, the “pKi CCK-A” value was 6.54.

On to `CC(C)CCN1C(=O)C(NC(=O)Oc2cccc(N(C)C)c2)C(=O)N(CC23CC4CC(CC(C4)C2)C3)c2ccccc21` (centres unmarked) [Example 4, 1-(1-Adamantylmethyl)-3-[3-(N,N-dimethylamino)phenyloxycarbonyl]amino-2,4-dioxo-5-(3-methylbut-1-yl)-2,3,4,5-tetrahydro-1H-1,5-benzodiazepine], for which the Ki on CCK-B receptor is 7.59 nM. Also, the “pKi CCK-A” value at CCK-A receptor is listed as 5.80.

At CCK-B receptor, `CC(C)CCN1C(=O)C(NC(=O)Nc2cccc(N(C)C)c2)C(=O)N(CC23CC4CC(CC(C4)C2)C3)c2ccccc21` (centres unmarked) [Example 2, N-[1-(1-Adamantylmethyl)-2,4-dioxo-5-(3-methylbut-1-yl)-2,3,4,5-tetrahydro-1H-1,5-benzodiazepin-3-yl]-N'-[3-(N,N-dimethylamino)phenyl]urea] showed a Ki of 5.62 nM. Moreover, at CCK-A receptor, the “pKi CCK-A” value amounted to 6.02.

With `Cc1cccc(NC(=O)NC2C(=O)N(CCO)c3ccccc3N(CC34CC5CC(CC(C5)C3)C4)C2=O)c1` (centres unmarked) [Example 10], the Ki at CCK-B receptor (setting [1]) is 0.398 nM. Also, the “pKi CCK-A” value on CCK-A receptor is 6.8.

As to `O=C(Nc1ccccc1)NC1C(=O)N(CCO)c2ccccc2N(CC23CC4CC(CC(C4)C2)C3)C1=O` (centres unmarked) [Example 9, N-[1-(Adamantylmethyl)-2,4-dioxo-5-(2-hydroxyethyl)-2,3,4,5-tetrahydro-1H-1,5-benzodiazepin-3-yl]-N'-phenylurea], the Ki at CCK-B receptor (setting [1]) was 1.41 nM.

For `CCCCN1C(=O)C(NC(=O)Nc2ccc(OC)cc2)C(=O)N(CCC(C)C)c2ccccc21` (centres unmarked) [Example 12], the Ki at CCK-B receptor (setting [1]) is 2.04 nM. On CCK-A receptor, the “pKi CCK-A” value is 6.16.
